target: T1, human glucagon receptor (Homo sapiens, UniProt P47871); assay: Glucagon binding inhibitory activity ([125I]-glucagon binding to glucagon receptor membrane protein); conditions: test compound 10 μM; 0.4% DMSO = 0%, non-labeled glucagon 1 μM = 100%; read-out: inhibitory rate (%) at 10 μM
T1 construct: made in house; host or cells: FreeStyle CHO cells, transient transfection with pMSRαneo/hGCGR; membrane fraction (35,000 rpm pellet)
In short: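 Receptor source was a membrane fraction of transiently transfected CHO cells bearing human receptor; 90 min room-temperature binding, filtration harvest, scintillation counting.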

T1 sequence (P47871 26-477): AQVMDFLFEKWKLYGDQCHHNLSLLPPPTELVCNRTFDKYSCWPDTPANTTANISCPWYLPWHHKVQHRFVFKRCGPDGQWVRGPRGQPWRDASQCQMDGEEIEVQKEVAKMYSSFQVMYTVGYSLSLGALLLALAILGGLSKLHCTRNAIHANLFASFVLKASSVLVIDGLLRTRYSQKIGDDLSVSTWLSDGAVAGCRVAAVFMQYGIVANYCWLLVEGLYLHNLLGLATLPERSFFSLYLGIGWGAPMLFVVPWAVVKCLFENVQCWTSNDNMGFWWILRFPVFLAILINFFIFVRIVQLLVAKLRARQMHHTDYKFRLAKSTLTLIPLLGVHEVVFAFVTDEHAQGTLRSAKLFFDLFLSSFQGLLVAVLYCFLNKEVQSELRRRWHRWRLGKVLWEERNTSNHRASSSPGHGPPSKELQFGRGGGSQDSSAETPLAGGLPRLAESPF

Row | inhibition at 10 µM | SMILES
1 | 86% | Cc1noc(C)c1-c1ccc2oc(C(Nc3ccc(C(=O)N(C)CCC(=O)O)cc3)C3CCCCC3)c(C)c2c1 (stereo not shown) [Example A178, 3-[{[4-({cyclohexyl[5-(3,5-dimethylisoxazol-4-yl)-3-methyl-1-benzofuran-2-yl]methyl}amino)phenyl]carbonyl}(methyl)amino]propanoic acid]
2 | 74% | Cc1c(C(CC(C)C)Nc2ccc(C(=O)N(C)CCC(=O)O)cc2)oc2ccc(OCc3ccccc3)cc12 (stereo not shown) [Example A159, 3-[{[4-({1-[5-(benzyloxy)-3-methyl-1-benzofuran-2-yl]-3-methylbutyl}amino)phenyl]carbonyl}(methyl)amino]propanoic acid]
3 | 72% | Cc1c(C(Nc2ccc(C(=O)N(C)CCC(=O)O)cc2)C(C)C)oc2ccc(F)cc12 (stereo not shown) [Example A192]
4 | 72% | COc1ccc2c(C(Nc3ccc(C(=O)N(C)CCC(=O)O)cc3)C3CCCCC3)c(C)oc2c1 (stereo not shown) [Example A215, 3-{[(4-{[cyclohexyl(6-methoxy-2-methyl-1-benzofuran-3-yl)methyl]amino}phenyl)carbonyl](methyl)amino}propanoic acid]
5 | 74% | COCCOc1ccc2oc(C(Nc3ccc(C(=O)N(C)CCC(=O)O)cc3)C(C)C)c(C)c2c1 (stereo not shown) [Example A173, 3-[{[4-({1-[5-(2-methoxyethoxy)-3-methyl-1-benzofuran-2-yl]-2-methylpropyl}amino)phenyl]carbonyl}(methyl)amino]propanoic acid]
6 | 70% | Cc1c(C(Nc2ccc(C(=O)N(C)CCC(=O)O)cn2)C(C)C)oc2ccc(OCC3CC3)cc12 (stereo not shown) [Example A211, 3-[{[6-({1-[5-(cyclopropylmethoxy)-3-methyl-1-benzofuran-2-yl]-2-methylpropyl}amino)pyridin-3-yl]carbonyl}(methyl)amino]propanoic acid]
7 | 83% | Cc1c(C(Nc2ccc(C(=O)N(C)CCC(=O)O)cc2)C2CCCC2)oc2c(F)cc(F)cc12 (stereo not shown) [Example A208, 3-{[(4-{[cyclopentyl(5,7-difluoro-3-methyl-1-benzofuran-2-yl)methyl]amino}phenyl)carbonyl](methyl)amino}propanoic acid]
8 | 87% | Cc1c(C(Nc2ccc(C(=O)N(C)CCC(=O)O)cc2)C2CCCCC2)oc2ccc(Oc3ncccc3C#N)cc12 (stereo not shown) [Example A198, 3-{[(4-{[{5-[(3-cyanopyridin-2-yl)oxy]-3-methyl-1-benzofuran-2-yl}(cyclohexyl)methyl]amino}phenyl)carbonyl](methyl)amino}-propanoic acid]
9 | 86% | Cc1c(C(Nc2ccc(C(=O)N(C)CCC(=O)O)cc2)C(C)C)oc2ccc(OC3CCSCC3)cc12 (stereo not shown) [Example A204, 3-(methyl{[4-({2-methyl-1-[3-methyl-5-(tetrahydro-2H-thiopyran-4-yloxy)-1-benzofuran-2-yl]propyl}amino)phenyl]carbonyl}amino)propanoic acid]
10 | 75% | COc1c(C(Nc2ccc(C(=O)N(C)CCC(=O)O)cc2)C2CCCCC2)oc2ccc(F)cc12 (stereo not shown) [Example A214, 3-{[(4-{[cyclohexyl(5-fluoro-3-methoxy-1-benzofuran-2-yl)methyl]amino}phenyl)carbonyl](methyl)amino}propanoic acid]

Second part, the molecule before the results:

Row | SMILES | inhibition at 10 µM
11 | Cc1c(C(CC(C)C)Nc2ccc(C(=O)NCCC(=O)O)cc2)sc2ccccc12 (stereo not shown) [Example A33, 3-{[(4-{[3-methyl-1-(3-methyl-1-benzothiophen-2-yl)butyl]amino}phenyl)carbonyl]amino}propanoic acid] | 76%
12 | COc1nn(-c2ccc(OC(F)(F)F)cc2)cc1C(Nc1ccc(C(=O)N(C)CCC(=O)O)cc1)C1CCCCC1 (stereo not shown) [Example 63, 3-[({4-[(cyclohexyl{3-methoxy-1-[4-(trifluoromethoxy)phenyl]-1H-pyrazol-4-yl}methyl)amino]phenyl}carbonyl)(methyl)amino]propanoic acid] | 72%
13 | COc1ccc2oc(C(Nc3ccc(C(=O)NCCC(=O)O)cc3)C3CCCCC3)cc2c1 (stereo not shown) [Example A22, 3-{[(4-{[cyclohexyl(5-methoxy-1-benzofuran-2-yl)methyl]amino}phenyl)carbonyl]amino}propanoic acid] | 66%
14 | CN(CCC(=O)O)C(=O)c1ccc(NC(c2cc3ccccc3o2)C2CCCCC2)cc1 (stereo not shown) [Example A4, 3-{[(4-{[1-benzofuran-2-yl(cyclohexyl)methyl]amino}phenyl)carbonyl](methyl)amino}-propanoic acid] | 66%
15 | Cc1c(C(Nc2ccc(C(=O)N(C)CCC(=O)O)cc2)C2CCCCC2)oc2cccnc12 (stereo not shown) [Example A113, 3-{[(4-{[cyclohexyl(3-methylfuro[3,2-b]pyridin-2-yl)methyl]amino}phenyl)carbonyl](methyl)amino}propanoic acid] | 68%
16 | Cc1nn(-c2cccc(Cl)c2)cc1C(Nc1ccc(C(=O)N(C)CCC(=O)O)cc1)C1CCCCC1 (stereo not shown) [Example 71, 3-[{[4-({[1-(3-chlorophenyl)-3-methyl-1H-pyrazol-4-yl](cyclohexyl)methyl}amino)phenyl]carbonyl}(methyl)amino]-propanoic acid] | 71%
17 | COc1cccc(-n2cc(C(Nc3ccc(C(=O)N(C)CCC(=O)O)cc3)C3CCCCC3)c(C(C)C)n2)c1 (stereo not shown) [Example 79, 3-[{[4-({cyclohexyl[1-(3-methoxyphenyl)-3-(1-methylethyl)-1H-pyrazol-4-yl]methyl}amino)phenyl]carbonyl}(methyl)amino]propanoic acid] | 67%
18 | CCOc1cccc(-n2cc(C(CC(C)C)Nc3ccc(C(=O)NCCC(=O)O)cc3)c(CC)n2)c1 (stereo not shown) [Example 86, 3-({[4-({1-[1-(3-ethoxyphenyl)-3-ethyl-1H-pyrazol-4-yl]-3-methylbutyl}amino)phenyl]carbonyl}amino)propanoic acid] | 76%
19 | COc1ccc(-n2cc(C(Nc3ccc(C(=O)NCCC(=O)O)cc3)C3CCCCC3)c(C(C)C)n2)cc1 (stereo not shown) [Example 52, 3-({[4-({cyclohexyl[1-(4-methoxyphenyl)-3-(1-methylethyl)-1H-pyrazol-4-yl]methyl}amino)phenyl]carbonyl}amino)propanoic acid] | 63%
20 | Cc1c(C(Nc2ccc(C(=O)N(C)CCC(=O)O)cc2)C2CCCCC2)oc2ccc(C#N)cc12 (stereo not shown) [Example A99, 3-{[(4-{[(5-cyano-3-methyl-1-benzofuran-2-yl)(cyclohexyl)methyl]amino}phenyl)carbonyl](methyl)amino}-propanoic acid] | 80%
21 | CCCc1nn(-c2ccc(C(F)(F)F)cn2)cc1C(Nc1ccc(C(=O)NCCC(=O)O)cc1)C1CCCCC1 (stereo not shown) [Example 5, 3-[({4-[(cyclohexyl{3-propyl-1-[5-(trifluoromethyl)pyridin-2-yl]-1H-pyrazol-4-yl}methyl)amino]phenyl}carbonyl)amino]propanoic acid] | 73%
22 | Cc1c(C(Nc2ccc(C(=O)N(C)CCC(=O)O)cc2)C2CCCCC2)oc2ccc(Br)nc12 (stereo not shown) [Example A126, 3-{[(4-{[(5-bromo-3-methylfuro[3,2-b]pyridin-2-yl)(cyclohexyl)methyl]amino}phenyl)carbonyl](methyl)amino}-propanoic acid] | 68%
23 | Cc1c(C(Nc2ccc(C(=O)N(C)CCC(=O)O)cc2)C2CCCCC2)sc2cnccc12 (stereo not shown) [Example A136, 3-{[(4-{[cyclohexyl(3-methylthieno[2,3-c]pyridin-2-yl)methyl]amino}phenyl)carbonyl](methyl)amino}propanoic acid] | 62%
24 | COc1ccc2nc(C(Nc3ccc(C(=O)NCCC(=O)O)cc3)C3CCCCC3)n(C)c2c1 (stereo not shown) [Example A116, 3-{[(4-{[cyclohexyl(6-methoxy-1-methyl-1H-benzimidazol-2-yl)methyl]amino}phenyl)carbonyl]amino}propanoic acid] | 58%
25 | Cc1cc(F)ccc1-n1cc(C(Nc2ccc(C(=O)N(C)CCC(=O)O)cc2)C2CCCCC2)c(C)n1 (stereo not shown) [Example 22, 3-[{[4-({[1-(4-fluoro-2-methylphenyl)-3-methyl-1H-pyrazol-4-yl](cyclohexyl)methyl}amino)phenyl]carbonyl}(methyl)amino]-propanoic acid] | 61%
26 | Cc1c(C(Nc2ccc(C(=O)NCCC(=O)O)nc2)C2CCCCC2)sc2ccccc12 (stereo not shown) [Example A62, 3-{[(5-{[cyclohexyl(3-methyl-1-benzothiophen-2-yl)methyl]amino}pyridin-2-yl)carbonyl]amino}propanoic acid] | 81%
27 | COc1nn(-c2ccc(OC(F)(F)F)cc2)cc1C(Nc1ccc(C(=O)NCCC(=O)O)cc1)C1CCCCC1 (stereo not shown) [Example 62, 3-[({4-[(cyclohexyl{3-methoxy-1-[4-(trifluoromethoxy)phenyl]-1H-pyrazol-4-yl}methyl)amino]phenyl}carbonyl)amino]propanoic acid] | 68%
28 | Cc1c(C(Nc2ccc(C(=O)N(C)CCC(=O)O)cc2)C2CCCCC2)oc2ccc(F)cc12 (stereo not shown) [Example A37, 3-{[(4-{[cyclohexyl(5-fluoro-3-methyl-1-benzofuran-2-yl)methyl]amino}phenyl)carbonyl](methyl)amino}propanoic acid] | 78%
29 | Cc1c(C(Nc2ccc(C(=O)N(C)CCC(=O)O)cc2)C2CCCCC2)sc2ncccc12 (stereo not shown) [Example A143, 3-{[(4-{[cyclohexyl(3-methylthieno[2,3-b]pyridin-2-yl)methyl]amino}phenyl)carbonyl](methyl)amino}propanoic acid] | 75%
30 | COCCOCc1c(C(Nc2ccc(C(=O)N(C)CCC(=O)O)cc2)C2CCCCC2)oc2ccc(F)cc12 (stereo not shown) [Example A133, 3-[({4-[(cyclohexyl{5-fluoro-3-[(2-methoxyethoxy)methyl]-1-benzofuran-2-yl}methyl)amino]phenyl}carbonyl)(methyl)amino]propanoic acid] | 80%
31 | COc1ccc(-n2cc(C(Nc3ccc(C(=O)NCCC(=O)O)cc3)C3CCCCC3)c(CN3CCOCC3)n2)cc1 (stereo not shown) [Example 68, 3-({[4-({cyclohexyl[1-(4-methoxyphenyl)-3-(morpholin-4-ylmethyl)-1H-pyrazol-4-yl]methyl}amino)phenyl]carbonyl}amino)propanoic acid] | 66%

Reference: patent US8436043B2 (Takeda Pharmaceutical Company Limited, priority 2008, dated 2013)
